According to patent publication US10544153B2, “Benzoic acid, benzoic acid derivatives and heteroaryl carboxylic acid conjugates of oxycodone, prodrugs, methods of making and use thereof” (KemPharm, Inc., priority 2014, dated 2020):

What was measured:
[1] = Oral PK in rats: plasma concentrations of released oxycodone by LC-MS/MS; settings: for AUC / Cmax / tmax: conjugate equivalent to 2 mg/kg freebase oxycodone; for %-AUC of OC / %-Cmax of OC / %-tmax of OC: relative to oxycodone (OC)
[2] = Oral PK in rats: plasma concentrations of oxymorphone by LC-MS/MS; settings: oxymorphone released; for AUC / Cmax / tmax: conjugate equivalent to 2 mg/kg freebase oxycodone; for %-AUC of OC / %-Cmax of OC / %-tmax of OC: relative to oxycodone (OC)
[3] = Tamper resistance: percent of OC released under tampering conditions, LC-MS/MS; type: physicochemical; settings: RT
Method: Effective abuse deterrent forms of drugs of abuse can also be resistant to chemical tampering. The prodrugs in the present technology also impart this characteristic. Several common tampering scenarios were employed and percent of OC released were determined by liquid chromatography with tandem mass spectrometry (LC-MS/MS). The results as shown in Table 7 indicated a very high degree of tamper resistance in the example OC prodrugs, releasing little to no OC.

[4] = Intranasal PK in rats: plasma concentrations of released oxymorphone by LC-MS/MS
[5] = Intranasal PK in rats (Table 4); settings: title: oxymorphone released (released oxycodone)
[6] = Table 6, equivalent to 2 mg/kg freebase oxycodone
[7] = Table 6, relative to oxycodone (OC)
[8] = equivalent to 2 mg/kg freebase oxycodone

## COc1ccc2c3c1OC1C(OC(=O)C(C)c4cccc(Oc5ccccc5)c4)=CCC4(O)C(C2)N(C)CCC314 (mixture of isomers) [6-Fenoprofen-OC]
[1]
  AUC: 21.6 ng·h/mL
  Cmax: 14.0 ng/mL
  tmax: 15 min
  %-AUC of OC: 69%
  %-Cmax of OC: 87%
  %-tmax of OC: 83%
[2]
  AUC: 4.6 ng·h/mL
  Cmax: 3.3 ng/mL
  tmax: 15 min
  %-AUC of OC: 67%
  %-Cmax of OC: 68%
  %-tmax of OC: 100%

## COc1ccc2c3c1OC1C(OC(=O)C(C)c4cccc(C(=O)c5ccccc5)c4)=CCC4(O)C(C2)N(C)CCC314 (mixture of isomers) [6-Ketoprofen-OC]
[1]
  AUC: 25.5 ng·h/mL
  Cmax: 14.7 ng/mL
  tmax: 15 min
  %-AUC of OC: 81%
  %-Cmax of OC: 91%
  %-tmax of OC: 83%
[3]; 1N HCl, 1 hour
  percent of OC released: 2%
[3]; 5% Bicarbonate, 1 hour
  percent of OC released: 3%
[3]; Water, 1 hour
  percent of OC released: 0%
[3]; Water, 24 hours
  percent of OC released: <1%
[2]
  AUC: 4.3 ng·h/mL
  Cmax: 3.7 ng/mL
  tmax: 15 min
  %-AUC of OC: 62%
  %-Cmax of OC: 77%
  %-tmax of OC: 100%

## COc1ccc2c3c1OC1C(OC(=O)C(C)c4ccc(CC(C)C)cc4)=CCC4(O)C(C2)N(C)CCC314 (mixture of isomers) [Conjugate 6-lbu-OC]
[1]
  AUC: 77.9 ng·h/mL
  Cmax: 39.5 ng/mL
  tmax: 26.4 min
  %-AUC of OC: 83%
  %-Cmax of OC: 62%
  %-tmax of OC: 47%
[4]; [6]
  AUC: 0.7 ng·h/mL
  Cmax: 1.0 ng/mL
  tmax: 30 min
[4]; [7]
  %-AUC of OC: 11%
  %-Cmax of OC: 11%
  %-tmax of OC: 143%
[5]; [8]
  Cmax: 131.7 ng/mL
  tmax: 4.98 min
[5]; relative to oxycodone (OC)
  %-Cmax of OC: 10%
  %-tmax of OC: 100%
[3]; 1N HCl, 1 hour
  percent of OC released: 2%
[3]; 5% Bicarbonate, 1 hour
  percent of OC released: 2%
[3]; Water, 1 hour
  percent of OC released: 0%
[3]; Water, 24 hours
  percent of OC released: 0%
[2]
  AUC: 8.4 ng·h/mL
  Cmax: 3.7 ng/mL
  tmax: 69 min
  %-AUC of OC: 83%
  %-Cmax of OC: 59%
  %-tmax of OC: 131%

## COc1cc(C(=O)OC2=CC[C@@]3(O)[C@H]4Cc5ccc(OC)c6c5[C@@]3(CCN4C)[C@H]2O6)ccc1O [4-OH-3-MeO-Bz-OC]
[3]; 1N HCl, 1 hour
  percent of OC released: 0%
[3]; 5% Bicarbonate, 1 hour
  percent of OC released: 0%
[3]; Water, 1 hour
  percent of OC released: 0%
[3]; Water, 24 hours
  percent of OC released: 0%

## COc1ccc2c3c1O[C@H]1C(OC(=O)c4cccc(N)c4)=CC[C@@]4(OC(=O)c5cccc(N)c5)[C@@H](C2)N(C)CC[C@]314 [(3-ABz)2-OC]
[3]; 1N HCl, 1 hour
  percent of OC released: 0%
[3]; 5% Bicarbonate, 1 hour
  percent of OC released: 0%
[3]; Water, 1 hour
  percent of OC released: 0%
[3]; Water, 24 hours
  percent of OC released: 0%

## COc1ccc2c3c1O[C@H]1C(OC(=O)c4cccc(O)c4)=CC[C@@]4(OC(=O)c5cccc(O)c5)[C@@H](C2)N(C)CC[C@]314 [(3-OH-Bz)2-OC]
[3]; 1N HCl, 1 hour
  percent of OC released: 0%
[3]; 5% Bicarbonate, 1 hour
  percent of OC released: 0%
[3]; Water, 1 hour
  percent of OC released: 0%
[3]; Water, 24 hours
  percent of OC released: 0%

## COc1ccc(C(=O)OC2=CC[C@@]3(OC(=O)c4ccc(OC)cc4)[C@H]4Cc5ccc(OC)c6c5[C@@]3(CCN4C)[C@H]2O6)cc1 [(4-MeO-Bz)2-OC]
[3]; 1N HCl, 1 hour
  percent of OC released: 0%
[3]; 5% Bicarbonate, 1 hour
  percent of OC released: 0%
[3]; Water, 1 hour
  percent of OC released: 0%
[3]; Water, 24 hours
  percent of OC released: 0%

## COc1cc(C(=O)OC2=CC[C@@]3(OC(=O)c4ccc(O)c(OC)c4)[C@H]4Cc5ccc(OC)c6c5[C@@]3(CCN4C)[C@H]2O6)ccc1O [(4-OH-3-MeO-Bz)2-OC]
[3]; 1N HCl, 1 hour
  percent of OC released: 0%
[3]; 5% Bicarbonate, 1 hour
  percent of OC released: 0%
[3]; Water, 1 hour
  percent of OC released: 0%
[3]; Water, 24 hours
  percent of OC released: 0%

## COc1ccc2c3c1O[C@H]1C(OC(=O)c4ccc(O)cc4)=CC[C@@]4(OC(=O)c5ccc(O)cc5)[C@@H](C2)N(C)CC[C@]314 [(4-OH-Bz)2-OC]
[3]; 1N HCl, 1 hour
  percent of OC released: 0%
[3]; 5% Bicarbonate, 1 hour
  percent of OC released: 0%
[3]; Water, 1 hour
  percent of OC released: 0%
[3]; Water, 24 hours
  percent of OC released: 0%

## COc1ccc2c3c1O[C@H]1C(OC(=O)c4ccccc4)=CC[C@@]4(OC(=O)c5ccccc5)[C@@H](C2)N(C)CC[C@]314 [(Bz)2-OC]
[3]; 1N HCl, 1 hour
  percent of OC released: 0%
[3]; 5% Bicarbonate, 1 hour
  percent of OC released: 0%
[3]; Water, 1 hour
  percent of OC released: 0%
[3]; Water, 24 hours
  percent of OC released: 0%

## COc1ccc2c3c1O[C@H]1C(OC(=O)/C=C/c4ccccc4)=CC[C@@]4(OC(=O)/C=C/c5ccccc5)[C@@H](C2)N(C)CC[C@]314 [(Cin)2-OC]
[3]; 1N HCl, 1 hour
  percent of OC released: 0%
[3]; 5% Bicarbonate, 1 hour
  percent of OC released: 0%
[3]; Water, 1 hour
  percent of OC released: 0%
[3]; Water, 24 hours
  percent of OC released: 0%

## COc1ccc2c3c1O[C@H]1C(OC(=O)c4ccccc4)=CC[C@@]4(O)[C@@H](C2)N(C)CC[C@]314 [Bz-OC]
[3]; 1N HCl, 1 hour
  percent of OC released: 0%
[3]; 5% Bicarbonate, 1 hour
  percent of OC released: 0%
[3]; Water, 1 hour
  percent of OC released: 0%
[3]; Water, 24 hours
  percent of OC released: 0%

## COc1ccc2c3c1O[C@H]1C(OC(=O)c4ccccc4N)=CC[C@@]4(O)[C@@H](C2)N(C)CC[C@]314 [Conjugate 2-ABz-OC]
[3]; 1N HCl, 1 hour
  percent of OC released: 0%
[3]; 5% Bicarbonate, 1 hour
  percent of OC released: 3%
[3]; Water, 1 hour
  percent of OC released: <1%
[3]; Water, 24 hours
  percent of OC released: <1%

## COc1ccc2c3c1O[C@H]1C(OC(=O)c4ccccc4O)=CC[C@@]4(O)[C@@H](C2)N(C)CC[C@]314 [Conjugate 2-OH-Bz-OC]
[3]; 1N HCl, 1 hour
  percent of OC released: 0%
[3]; 5% Bicarbonate, 1 hour
  percent of OC released: 5%
[3]; Water, 1 hour
  percent of OC released: 0%
[3]; Water, 24 hours
  percent of OC released: 0%

## COc1ccc2c3c1O[C@H]1C(OC(=O)c4cccc(N)c4)=CC[C@@]4(O)[C@@H](C2)N(C)CC[C@]314 [Conjugate 3-ABz-OC]
[1]
  AUC: 52.9 ng·h/mL
  Cmax: 45.5 ng/mL
  tmax: 33 min
  %-AUC of OC: 83%
  %-Cmax of OC: 96%
  %-tmax of OC: 122%
[3]; 1N HCl, 1 hour
  percent of OC released: <1%
[3]; 5% Bicarbonate, 1 hour
  percent of OC released: <1%
[3]; Water, 1 hour
  percent of OC released: 0%
[3]; Water, 24 hours
  percent of OC released: 0%
[2]
  AUC: 3.6 ng·h/mL
  Cmax: 2.0 ng/mL
  tmax: 26.4 min
  %-AUC of OC: 69%
  %-Cmax of OC: 49%
  %-tmax of OC: 97%

## COc1ccc2c3c1O[C@H]1C(OC(=O)c4cccc(O)c4)=CC[C@@]4(O)[C@@H](C2)N(C)CC[C@]314 [Conjugate 3-OH-Bz-OC]
[3]; 1N HCl, 1 hour
  percent of OC released: <1%
[3]; 5% Bicarbonate, 1 hour
  percent of OC released: 0%
[3]; Water, 1 hour
  percent of OC released: 0%
[3]; Water, 24 hours
  percent of OC released: 0%

## COc1ccc2cc(C(C)C(=O)OC3=CCC4(O)C5Cc6ccc(OC)c7c6C4(CCN5C)C3O7)ccc2c1 (centres unmarked) [Naprox-OC]
[3]; 1N HCl, 1 hour
  percent of OC released: <1%
[3]; 5% Bicarbonate, 1 hour
  percent of OC released: 0%
[3]; Water, 1 hour
  percent of OC released: 0%
[3]; Water, 24 hours
  percent of OC released: 0%
